Results on 10 compounds are retold here after ChEMBL document CHEMBL5058564, “EUbOPEN Chemogenomics Library 2 (Incucyte)” (2022).

Common to all, as to assay type: toxicity, cell-based
One series relates to U2OS. Description: Incucyte cell viability with U2OS. As to conditions: human, 10 µM, compound concentration 10 uM.
The subject of the next series is Fibroblast. Description: Incucyte cell viability with human fibroblast. As to conditions: 10 µM, compound concentration 10 uM.
In the next series the test system is HEK-293T. The series can be described thus: Incucyte cell viability with HEK293T. As to conditions: human, 10 µM, compound concentration 10 uM.
[1] abbreviates: 0 h, replicate number 1, timepoint 0 hours.
[2] abbreviates: 0 h, replicate number 2, timepoint 0 hours.
Where [3] appears, read: 6 h, replicate number 1, timepoint 6 hours.
The mark [4] stands for this setting: 12 h, replicate number 1, timepoint 12 hours.
Where [5] appears, read: 12 h, replicate number 2, timepoint 12 hours.
The mark [6] stands for this setting: 18 h, replicate number 1, timepoint 18 hours.
[7] abbreviates: 18 h, replicate number 2, timepoint 18 hours.
Where [8] appears, read: 24 h, replicate number 2, timepoint 24 hours.
[9] abbreviates: 24 h, replicate number 1, timepoint 24 hours.
The mark [10] stands for this setting: 6 h, replicate number 2, timepoint 6 hours.
Note: unitless GR value; below 1 slowed growth and below 0 cell loss.

Consider `Cc1ccccc1-c1cc(N2CCN(C)CC2)ncc1N(C)C(=O)C(C)(C)c1cc(C(F)(F)F)cc(C(F)(F)F)c1` [NETUPITANT], for which the “Growth Rate” value in the series on U2OS (setting [1]) is -0.52; in the series with Fibroblast (setting [1]), -0.23; in the series with Fibroblast (setting [2]), 0.68; in the series on Fibroblast (setting [3]), 0.24; with Fibroblast (setting [4]), 0.63; in the series with Fibroblast (setting [5]) it was 0.31. Further, the “Growth Rate” value turned out to be 0.73 in the series on Fibroblast (setting [6]); 0.71 in the series on Fibroblast (setting [7]); 0.71 with Fibroblast (setting [8]); 0.83 with HEK-293T (setting [1]); 0.7 in the series with HEK-293T (setting [2]); 0.84 in the series with HEK-293T (setting [4]). The “Growth Rate” value in the series on HEK-293T (setting [6]) worked out at 0.72; in the series on HEK-293T (setting [7]), 0.92; with HEK-293T (setting [9]), 0.5; with HEK-293T (setting [8]), 0.86.

Regarding `COc1cc(N2CCN(C)CC2)ccc1Nc1nccc(-c2cn(C)c3cnccc23)n1`, the “Growth Rate” value with U2OS (setting [1]) was 0.8; with U2OS (setting [2]) it was -1; in the series on U2OS (setting [8]) it was 0.96; with Fibroblast (setting [1]), -0.91; in the series with Fibroblast (setting [2]), -0.24; in the series with HEK-293T (setting [1]), -0.61. The results for the “Growth Rate” value with HEK-293T (setting [2]) and in the series with HEK-293T (setting [8]) were -0.28 and 0.95, respectively.

Take `CSCC[C@H](NC(=O)[C@H](CC(C)C)NC(=O)CNC(=O)[C@H](Cc1ccccc1)N(C)C(=O)[C@H](Cc1ccccc1)NC(=O)[C@H](CC(=O)O)NC(=O)CCC(=O)O)C(N)=O` [SENKTIDE]: the “Growth Rate” value turned out to be 0.94 with U2OS (setting [4]); 0.98 in the series with U2OS (setting [5]); 0.91 with U2OS (setting [7]); 0.34 with Fibroblast (setting [1]); 0.41 in the series with Fibroblast (setting [2]); 0.25 in the series on Fibroblast (setting [10]). Moreover, the “Growth Rate” value in the series with Fibroblast (setting [4]) is listed as 0.98; with Fibroblast (setting [5]), 0.87; in the series on Fibroblast (setting [9]) it was 0.9; in the series on HEK-293T (setting [1]), 0.75; in the series with HEK-293T (setting [2]) it was -0.03; with HEK-293T (setting [3]), 0.83. Moreover, the “Growth Rate” value in the series on HEK-293T (setting [5]) is on record as 0.93; with HEK-293T (setting [6]), 0.92; with HEK-293T (setting [9]) it was 0.84; in the series with HEK-293T (setting [8]), 0.88.

On to `C[C@@H]1CN(Cc2ccc(F)cc2)CCN1C(=O)COc1ccc(Cl)cc1NC(N)=O` [BX 471 FREE BASE], for which the “Growth Rate” value in the series on U2OS (setting [1]) is recorded as -0.96; in the series with U2OS (setting [2]), -1; with U2OS (setting [10]), 0.94; in the series on U2OS (setting [5]), 0.91; in the series with U2OS (setting [7]), 0.79; in the series on U2OS (setting [8]), 0.89. The “Growth Rate” value in the series with Fibroblast (setting [1]) is 0.82; in the series on Fibroblast (setting [2]), 0.24; in the series with Fibroblast (setting [3]) it was -0.16; in the series with Fibroblast (setting [10]), 0.36; in the series on Fibroblast (setting [4]), -0.14; with Fibroblast (setting [5]), 0.49. Besides, the “Growth Rate” value with Fibroblast (setting [6]) is reported as -0.19; with Fibroblast (setting [7]), 0.85; in the series with Fibroblast (setting [9]), -0.14; in the series with Fibroblast (setting [8]) it was 0.72; in the series on HEK-293T (setting [3]), -0.13; in the series with HEK-293T (setting [10]), 0.4. Moreover, the “Growth Rate” value with HEK-293T (setting [4]) is reported as -0.03; in the series with HEK-293T (setting [5]) it was 0.27; in the series with HEK-293T (setting [6]), 0.11; in the series with HEK-293T (setting [7]), 0.4; in the series on HEK-293T (setting [9]) it was 0.18; in the series on HEK-293T (setting [8]), 0.33.

As to `CCC(=O)NC[C@@H]1C[C@H]1c1cccc2c1CCO2` [TASIMELTEON], the “Growth Rate” value in the series with U2OS (setting [1]) was -0.37; with U2OS (setting [2]), -0.06; with U2OS (setting [3]), 0.85; in the series on U2OS (setting [10]) it was 0.51; with U2OS (setting [4]) it was 0.97; in the series on U2OS (setting [5]) it was 0.81. Further, the “Growth Rate” value with U2OS (setting [7]) worked out at 0.96; in the series with U2OS (setting [8]) it was 0.96; in the series on Fibroblast (setting [2]), 0.97; with Fibroblast (setting [3]), 0.35; in the series on Fibroblast (setting [10]) it was 0.26; in the series on Fibroblast (setting [4]), 0.48. Besides, the “Growth Rate” value in the series with Fibroblast (setting [5]) turned out to be 0.49; with Fibroblast (setting [6]), 0.69; in the series on Fibroblast (setting [7]), 0.76; in the series with Fibroblast (setting [9]) it was 0.48; in the series with Fibroblast (setting [8]) it was 0.82; in the series with HEK-293T (setting [1]) it was 0.74. The “Growth Rate” value in the series with HEK-293T (setting [2]) is 0.1; with HEK-293T (setting [3]), 0.74; with HEK-293T (setting [6]), 0.92; with HEK-293T (setting [7]), 0.94; in the series on HEK-293T (setting [9]) it was 0.79; in the series with HEK-293T (setting [8]) it was 0.99.

On to `CCCCCC(O)/C=C/[C@H]1C(=O)CC(O)C1C/C=C\CCCC(=O)O` (stereo partly drawn), for which the “Growth Rate” value is given as -0.23 with U2OS (setting [1]); 0.05 in the series with U2OS (setting [2]); 0.59 in the series with U2OS (setting [3]); 0.59 with U2OS (setting [4]); 0.84 with U2OS (setting [5]); 0.66 in the series on U2OS (setting [6]). Besides, the “Growth Rate” value in the series with U2OS (setting [7]) is reported as 0.78; in the series with U2OS (setting [9]), 0.72; with U2OS (setting [8]), 0.87; in the series with Fibroblast (setting [1]), 0.39; in the series on Fibroblast (setting [2]), -0.28; in the series with Fibroblast (setting [3]), -0.61. The “Growth Rate” value in the series with Fibroblast (setting [4]) is 0.36; in the series on Fibroblast (setting [6]) it was 0.47; with Fibroblast (setting [9]), 0.54; with HEK-293T (setting [1]) it was 0.99; in the series on HEK-293T (setting [3]) it was 0.68; in the series with HEK-293T (setting [4]) it was 0.59. Besides, the “Growth Rate” value was 0.69 with HEK-293T (setting [6]) and 0.58 in the series on HEK-293T (setting [9]).

With `O=C1COc2nccc(-c3ccccc3F)c2CN1Cc1cc(C(F)(F)F)cc(C(F)(F)F)c1`, the “Growth Rate” value was -0.7 in the series on U2OS (setting [1]); 0.96 in the series on U2OS (setting [5]); 0.97 in the series on U2OS (setting [6]); 0.94 in the series on U2OS (setting [7]); 0.88 in the series on U2OS (setting [9]); 0.93 in the series with U2OS (setting [8]). In addition, the “Growth Rate” value was 0.17 in the series with Fibroblast (setting [3]); 0.8 with Fibroblast (setting [4]); 0.58 in the series with Fibroblast (setting [6]); 0.73 in the series on Fibroblast (setting [9]); 0.77 in the series on HEK-293T (setting [10]); 0.89 in the series with HEK-293T (setting [5]). The “Growth Rate” value in the series with HEK-293T (setting [6]) was found to be 0.98; in the series with HEK-293T (setting [7]) it was 0.88.

Consider `O=C(O)CCCCCC[C@H]1C(=O)NC(=O)N1CCC(O)C1CCCCC1` (stereo partly drawn), for which the “Growth Rate” value is recorded as -0.44 in the series with U2OS (setting [1]); 0.65 with U2OS (setting [3]); 0.81 with U2OS (setting [6]); 0.25 with Fibroblast (setting [1]); 0.26 in the series with Fibroblast (setting [2]); 0.91 in the series with Fibroblast (setting [5]). In addition, the “Growth Rate” value with HEK-293T (setting [2]) is 0.31; in the series with HEK-293T (setting [3]) it was 0.84; in the series on HEK-293T (setting [10]), 0.93; in the series with HEK-293T (setting [4]) it was 0.73; with HEK-293T (setting [5]), 0.68; with HEK-293T (setting [6]) it was 0.88. Moreover, the “Growth Rate” value in the series with HEK-293T (setting [7]) is reported as 0.81; in the series with HEK-293T (setting [9]) it was 0.91.

For the compound `Cc1cc(CN)cc(C)c1-c1ncn(C)c1-c1ccnc2cc(F)ccc12`, the “Growth Rate” value is given as -0.16 with U2OS (setting [1]); -0.67 in the series with U2OS (setting [2]); 0.54 in the series on U2OS (setting [3]); 0.18 in the series on U2OS (setting [10]); 0.64 in the series with U2OS (setting [4]); 0.55 in the series on U2OS (setting [5]). For the same compound, the “Growth Rate” value turned out to be 0.92 with U2OS (setting [6]); 0.73 in the series on U2OS (setting [7]); 0.79 with U2OS (setting [9]); 0.5 in the series on Fibroblast (setting [2]); 0.31 in the series with Fibroblast (setting [3]); 0.5 with Fibroblast (setting [4]). Moreover, the “Growth Rate” value in the series on Fibroblast (setting [5]) is recorded as 0.83; with Fibroblast (setting [6]) it was 0.18; in the series with Fibroblast (setting [7]), 0.64; in the series on Fibroblast (setting [9]) it was 0.09; in the series with Fibroblast (setting [8]), 0.58; in the series with HEK-293T (setting [2]) it was 0.31. Further, the “Growth Rate” value turned out to be 0.86 in the series with HEK-293T (setting [3]); 0.7 in the series with HEK-293T (setting [10]); 0.93 in the series with HEK-293T (setting [4]); 0.96 with HEK-293T (setting [5]); 0.79 in the series with HEK-293T (setting [6]); 0.92 in the series on HEK-293T (setting [7]). The “Growth Rate” value amounted to 0.87 in the series with HEK-293T (setting [9]) and 0.92 in the series with HEK-293T (setting [8]).

With `O=C(NCc1ccc(F)cc1)N1CCN2C(=O)OC(c3ccccc3)(c3ccccc3)C2C1` (stereo not drawn), the “Growth Rate” value was 0.37 in the series on U2OS (setting [3]); 0.99 in the series on U2OS (setting [10]); 0.99 in the series with U2OS (setting [7]); 0.97 in the series with U2OS (setting [8]); -0.48 with Fibroblast (setting [1]); 0.83 in the series on Fibroblast (setting [2]). Moreover, the “Growth Rate” value in the series on Fibroblast (setting [10]) is on record as 0.42; in the series on Fibroblast (setting [9]) it was 0.67; in the series on HEK-293T (setting [3]), 0.88; in the series with HEK-293T (setting [6]), 1; in the series with HEK-293T (setting [9]), 0.92.
